Where a SMILES comes first, the peptide text is derived from it. [ ]: non-standard residue; d: D form.
Experiments:
S. aureus COL (MRSA) = experiment: Synergistic activity with Ertapenem (4 μg/ml) against MRSA, MIC; assay type: cell-based, Staphylococcus aureus; details: S. aureus COL, together with 4 μg/ml Ertapenem (synergistic activity)
Method: (§1) Minimum inhibition concentrations (MICs) were determined against Escherichia coli (ATCC 25922), Staphylococcus aureus (ATCC 25923), Klebsiella pneumoniae (ATCC 10031) and Pseudomonas aeruginosa (ATCC 27853). Also clinical strains of E. coli, K. pneumoniae, E. cloacae, P. aeruginosa, Serratia marcescens, Proteus mirabilis, S. pneumoniae, Acinetobacter baumannii, A. johnsonii and S. aureus were used for MICs assays. Additionally, clinical strains of yeast including Candida albicans, C. glabrata, C. parapsilosis and C. quillermondiae were used. The susceptibility of these microorganisms to Chain peptides were determined using micro broth dilution assay. Colonies of the respective microorganism from Muller Hinton (MH) agar plates incubated overnight were suspended in MH broth media and final concentration of microorganism was adjusted to 5.0×10^5 cfu/ml. An aliquot of 10 μl of each Chain peptide, or gentamicin, tetracycline as reference antibiotics were added in differing concentrations along with 90 μl of bacterial suspension to 96 well polypropylene plates and incubated at 37° C. for 20 to 24 hours. Concentrations of Chain peptides and reference antibiotics ranged from 0.125 to 128 μg/ml and the MICs were recorded as the lowest concentration with no visual growth of bacteria. Similarly, antifungal MICs were tested in Potato dextrose broth.
(§2) Peptides Chain 104, Chain 105, Chain 201, Chain 308, Chain 310 were tested against antibiotic-sensitive strains of S. aureus RN4220 and methicillin resistant strains of S. aureus COL (MRSA). Chain peptides comprising of either L- or D-form amino acids were tested against these bacteria, and the D-form peptides were found have better activity compared to L-form (Table 6). Synergistic activity of chain peptides along with Ertapenem (4 μg/ml) was tested to know whether it will influence the activity against MRSA strains. […] Chain 310 has the best antibacterial activity against the MRSA strains with a MIC of 0.06 & 0.03 μg/ml along with Ertapenem (4 μg/ml) for both forms of L and D-peptides (Table 6).

S. aureus RN4220 = assay type: cell-based, Staphylococcus aureus; details: antibiotic sensitive strain S. aureus RN4220
Method: as §1, §2

[1] = test system: clinical strains of Candida albicans; experiment: MIC, clinical yeast strains, Candida albicans; assay type: cell-based; design: unit: μg/ml
Method: as §1
(§3) Clinical strains of yeasts including Candida albicans, C. glabrata, C. parapsilosis and C. quillermondiae were also tested with the 12 Chain peptides. The minimum inhibitory concentration (MICs) varied between these peptides and are presented in Tables 4a, 4b, 4c and 5a, 5b, 5c. Peptides Chain 105, 201 and 308 are broad spectrum antimicrobials with MICs between 0.5-32 μg/ml against all the bacteria and yeasts tested, except Serratia marcescens and Proteus mirabilis, against which the MICs were between 64-128 μg/ml. Peptide Chain 306 has narrow spectrum activity against E.coli at 1 μg/ml and for the rest of the bacterial strains at >32 μg/ml (FIG. 10).

[2] = test system: clinical strains of C. quillermondiae; experiment: MIC, clinical yeast strains, C. quillermondiae; assay type: cell-based; details: C. quillermondiae clinical yeast strain 1
Method: as §1, §3

[3] = test system: clinical strains of C. parapsilosis; experiment: MIC, clinical yeast strains, C. parapsilosis; assay type: cell-based, Candida parapsilosis; design: unit: μg/ml
Method: as §1, §3

[4] = test system: clinical strains of C. glabrata; experiment: MIC, clinical yeast strains, C. glabrata; assay type: cell-based, Candida glabrata; design: unit: μg/ml
Method: as §1, §3

[5] = Candida albicans clinical yeast strain 1
[6] = Candida albicans clinical yeast strain 2
[7] = Candida albicans clinical yeast strain 3
[8] = Candida albicans clinical yeast strain 4
[9] = Candida albicans clinical yeast strain 5
[10] = C. parapsilosis clinical yeast strain 1
[11] = C. parapsilosis clinical yeast strain 2
[12] = C. parapsilosis clinical yeast strain 3
[13] = C. parapsilosis clinical yeast strain 4
[14] = C. glabrata clinical yeast strain 1
[15] = C. glabrata clinical yeast strain 2
[16] = C. glabrata clinical yeast strain 3
[17] = C. glabrata clinical yeast strain 4

## CC[C@@H](C)[C@@H](NC(=O)[C@@H](CCSC)NC(=O)[C@@H](C)NC(=O)[C@@H](CCCNC(=N)N)NC(=O)[C@@H](Cc1c[nH]c2ccccc12)NC(=O)[C@@H](CCCCN)NC(=O)[C@H](N)CCCNC(=N)N)C(=O)N[C@H](CCCNC(=N)N)C(=O)N[C@H](CC(C)C)C(=O)N[C@H](Cc1c[nH]cn1)C(=O)N[C@H](C)C(=O)N[C@H](CCCCN)C(=O)N[C@H](CCCNC(=N)N)C(=O)N[C@H](CC(C)C)C(=O)N[C@H](CCCNC(=N)N)C(=O)N[C@H](CCCCN)C(=O)O [104 D] (H-[dR][dK][dW][dR][dA][dM][dI][dR][dL][dH][dA][dK][dR][dL][dR][dK]-OH)
S. aureus COL (MRSA)
  Minimum inhibitory concentration (MIC), S. aureus COL + 4 μg/ml Ertapenem: 4 µg/mL
S. aureus RN4220
  Minimum inhibitory concentration (MIC), S. aureus RN4220: 64 µg/mL

## CC[C@@H](C)[C@@H](NC(=O)[C@@H](CCSC)NC(=O)[C@@H](C)NC(=O)[C@@H](CCCNC(=N)N)NC(=O)[C@@H](Cc1c[nH]c2ccccc12)NC(=O)[C@@H](CCCCN)NC(=O)[C@H](N)CCCNC(=N)N)C(=O)N[C@H](CCCNC(=N)N)C(=O)N[C@H](CC(C)C)C(=O)N[C@H](Cc1c[nH]cn1)C(=O)N[C@H](C)C(=O)N[C@H](CCCCN)C(=O)N[C@H](Cc1c[nH]c2ccccc12)C(=O)N[C@H](CC(C)C)C(=O)N[C@H](CCCNC(=N)N)C(=O)N[C@H](CCCCN)C(=O)O [105 D] (H-[dR][dK][dW][dR][dA][dM][dI][dR][dL][dH][dA][dK][dW][dL][dR][dK]-OH)
S. aureus COL (MRSA)
  Minimum inhibitory concentration (MIC), S. aureus COL + 4 μg/ml Ertapenem: 2 µg/mL
S. aureus RN4220
  Minimum inhibitory concentration (MIC), S. aureus RN4220: 16 µg/mL

## CC[C@@H](C)[C@@H](NC(=O)[C@@H](Cc1c[nH]c2ccccc12)NC(=O)[C@H](N)CCCCN)C(=O)N[C@@H](C(=O)N[C@H](Cc1c[nH]c2ccccc12)C(=O)N[C@H](CCCNC(=N)N)C(=O)N[C@H](Cc1c[nH]c2ccccc12)C(=O)N[C@H](CCCNC(=N)N)C(=O)N[C@H](Cc1ccccc1)C(=O)N[C@H](CCCCN)C(=O)N[C@H](CCCNC(=N)N)C(=O)O)C(C)C [201 D] (H-[dK][dW][dI][dV][dW][dR][dW][dR][dF][dK][dR]-OH)
S. aureus COL (MRSA)
  Minimum inhibitory concentration (MIC), S. aureus COL + 4 μg/ml Ertapenem: 1 µg/mL
S. aureus RN4220
  Minimum inhibitory concentration (MIC), S. aureus RN4220: 2 µg/mL

## CC(C)C[C@@H](NC(=O)[C@H](N)CCCNC(=N)N)C(=O)N[C@H](CCCCN)C(=O)N[C@H](Cc1c[nH]c2ccccc12)C(=O)N[C@H](Cc1ccccc1)C(=O)N[C@H](CC(C)C)C(=O)N[C@H](CC(C)C)C(=O)N[C@H](Cc1ccccc1)C(=O)N[C@H](CCCNC(=N)N)C(=O)N[C@H](CCCCN)C(=O)N[C@H](CCCNC(=N)N)C(=O)O [308 D] (H-[dR][dL][dK][dW][dF][dL][dL][dF][dR][dK][dR]-OH)
S. aureus COL (MRSA)
  Minimum inhibitory concentration (MIC), S. aureus COL + 4 μg/ml Ertapenem: 1 µg/mL
S. aureus RN4220
  Minimum inhibitory concentration (MIC), S. aureus RN4220: 4 µg/mL

## CC(C)C[C@@H](NC(=O)[C@@H](CCCCN)NC(=O)[C@@H](CCCCN)NC(=O)[C@@H](Cc1ccccc1)NC(=O)[C@@H](CC(C)C)NC(=O)[C@@H](Cc1c[nH]c2ccccc12)NC(=O)[C@@H](CCCNC(=N)N)NC(=O)[C@@H](Cc1c[nH]c2ccccc12)NC(=O)[C@@H](CCCCN)NC(=O)[C@@H](CCCNC(=N)N)NC(=O)[C@H](N)CCCCN)C(=O)O [310 D] (H-[dK][dR][dK][dW][dR][dW][dL][dF][dK][dK][dL]-OH)
S. aureus COL (MRSA)
  Minimum inhibitory concentration (MIC), S. aureus COL + 4 μg/ml Ertapenem: <0.03 µg/mL
S. aureus RN4220
  Minimum inhibitory concentration (MIC), S. aureus RN4220: >64 µg/mL

## C[C@@H]1[C@H](O)[C@@H](C)/C=C/C=C/C=C/C=C/C=C/C=C/C=C/[C@H](O[C@@H]2O[C@H](C)[C@@H](O)[C@H](N)[C@@H]2O)C[C@@H]2O[C@](O)(C[C@@H](O)C[C@@H](O)[C@H](O)CC[C@@H](O)C[C@@H](O)CC(=O)O[C@H]1C)C[C@H](O)[C@H]2C(=O)O [Amphotericin B, reference compound]
[1]; [5]
  Minimum inhibitory concentration: 2
[1]; [6]
  Minimum inhibitory concentration: 0.5
[1]; [7]
  Minimum inhibitory concentration: 2
[1]; [8]
  Minimum inhibitory concentration: 2
[1]; [9]
  Minimum inhibitory concentration: 2
[2]
  Minimum inhibitory concentration: 2
[3]; [10]
  Minimum inhibitory concentration: 2
[3]; [11]
  Minimum inhibitory concentration: 2
[3]; [12]
  Minimum inhibitory concentration: 2
[3]; [13]
  Minimum inhibitory concentration: 2
[4]; [14]
  Minimum inhibitory concentration: 4
[4]; [15]
  Minimum inhibitory concentration: 4
[4]; [16]
  Minimum inhibitory concentration: 2
[4]; [17]
  Minimum inhibitory concentration: 4

## CC(C)C[C@@H](NC(=O)[C@@H](CCCCN)NC(=O)[C@@H](Cc1c[nH]c2ccccc12)NC(=O)[C@@H](CCCCN)NC(=O)[C@@H](C)NC(=O)[C@@H](Cc1c[nH]cn1)NC(=O)[C@@H](CC(C)C)NC(=O)[C@@H](CCCNC(=N)N)NC(=O)[C@@H](Cc1c[nH]c2ccccc12)NC(=O)[C@H](N)Cc1c[nH]c2ccccc12)C(=O)N[C@H](Cc1c[nH]c2ccccc12)C(=O)O [Chain109D] (H-[dW][dW][dR][dL][dH][dA][dK][dW][dK][dL][dW]-OH)
[1]; [5]
  Minimum inhibitory concentration: 128
[1]; [6]
  Minimum inhibitory concentration: 128
[1]; [7]
  Minimum inhibitory concentration: 128
[1]; [8]
  Minimum inhibitory concentration: 128
[1]; [9]
  Minimum inhibitory concentration: 128
[2]
  Minimum inhibitory concentration: 128
[3]; [10]
  Minimum inhibitory concentration: 128
[3]; [11]
  Minimum inhibitory concentration: 128
[3]; [12]
  Minimum inhibitory concentration: 128
[3]; [13]
  Minimum inhibitory concentration: 8
[4]; [14]
  Minimum inhibitory concentration: 128
[4]; [15]
  Minimum inhibitory concentration: 128
[4]; [16]
  Minimum inhibitory concentration: 16
[4]; [17]
  Minimum inhibitory concentration: 64

## CC[C@H](C)[C@H](NC(=O)[C@H](CCSC)NC(=O)[C@H](C)NC(=O)[C@H](CCCNC(=N)N)NC(=O)[C@H](Cc1c[nH]c2ccccc12)NC(=O)[C@H](CCCCN)NC(=O)[C@@H](N)CCCNC(=N)N)C(=O)N[C@@H](CCCNC(=N)N)C(=O)N[C@@H](CC(C)C)C(=O)N[C@@H](Cc1c[nH]cn1)C(=O)N[C@@H](C)C(=O)N[C@@H](CCCCN)C(=O)N[C@@H](CCCNC(=N)N)C(=O)N[C@@H](CC(C)C)C(=O)N[C@@H](CCCNC(=N)N)C(=O)N[C@@H](CCCCN)C(=O)O [Compound 104] (H-RKWRAMIRLHAKRLRK-OH)
S. aureus COL (MRSA)
  Minimum inhibitory concentration (MIC), S. aureus COL + 4 μg/ml Ertapenem: 0.25 µg/mL
S. aureus RN4220
  Minimum inhibitory concentration (MIC), S. aureus RN4220: >64 µg/mL

## CC[C@H](C)[C@H](NC(=O)[C@H](CCSC)NC(=O)[C@H](C)NC(=O)[C@H](CCCNC(=N)N)NC(=O)[C@H](Cc1c[nH]c2ccccc12)NC(=O)[C@H](CCCCN)NC(=O)[C@@H](N)CCCNC(=N)N)C(=O)N[C@@H](CCCNC(=N)N)C(=O)N[C@@H](CC(C)C)C(=O)N[C@@H](Cc1c[nH]cn1)C(=O)N[C@@H](C)C(=O)N[C@@H](CCCCN)C(=O)N[C@@H](Cc1c[nH]c2ccccc12)C(=O)N[C@@H](CC(C)C)C(=O)N[C@@H](CCCNC(=N)N)C(=O)N[C@@H](CCCCN)C(=O)O [Compound 105] (H-RKWRAMIRLHAKWLRK-OH)
S. aureus COL (MRSA)
  Minimum inhibitory concentration (MIC), S. aureus COL + 4 μg/ml Ertapenem: 0.5 µg/mL
S. aureus RN4220
  Minimum inhibitory concentration (MIC), S. aureus RN4220: >64 µg/mL

## CC[C@H](C)[C@H](NC(=O)[C@H](Cc1c[nH]c2ccccc12)NC(=O)[C@@H](N)CCCCN)C(=O)N[C@H](C(=O)N[C@@H](Cc1c[nH]c2ccccc12)C(=O)N[C@@H](CCCNC(=N)N)C(=O)N[C@@H](Cc1c[nH]c2ccccc12)C(=O)N[C@@H](CCCNC(=N)N)C(=O)N[C@@H](Cc1ccccc1)C(=O)N[C@@H](CCCCN)C(=O)N[C@@H](CCCNC(=N)N)C(=O)O)C(C)C [Compound 201] (H-KWIVWRWRFKR-OH)
S. aureus COL (MRSA)
  Minimum inhibitory concentration (MIC), S. aureus COL + 4 μg/ml Ertapenem: 0.5 µg/mL
S. aureus RN4220
  Minimum inhibitory concentration (MIC), S. aureus RN4220: 64 µg/mL

Reference: patent US11096985B2, “Antimicrobial peptides, their variants and uses” (priority 2015, dated 2021)
